Laboratory results from paper PMC9964680, “Novel TDP1 Inhibitors: Disubstituted Thiazolidine-2,4-Diones Containing Monoterpene Moieties” (International Journal of Molecular Sciences, 2023).
Where two headings read alike, the source gives them in different places.

How the values were obtained:
[1] = biological target: T1, Human recombinant TDP1 (Homo sapiens, UniProt Q9NUW8); experiment: Real-time oligonucleotide biosensor assay of TDP1 activity; assay type: biochemical; conditions: 1.5 nM TDP1, 50 nM biosensor, 26 °C, at least three experiments; for IC50: read-out: TDP1 inhibitory activity IC50
T1 construct: made in house
Description: The inhibiting activity of the compounds against TDP1 was investigated using a real-time oligonucleotide biosensor assay.
The biosensor (5′-[FAM] AAC GTC AGGGTC TTC C [BHQ]-3′) was synthesized in the Laboratory of Nucleic Acid Chemistry at the Institute of Chemical Biology and Fundamental Medicine (Novosibirsk, Russia) and was used for TDP1 enzyme activity real-time fluorescence detection. The reaction mixture (200 µL) contained a TDP1 reaction buffer (50 mM Tris-HCl, pH 8.0, 50 mM NaCl, and 7 mM β-mercaptoethanol), 50 nM oligonucleotide, varied concentrations of the tested compounds, and purified TDP1 in a final concentration of 1.5 nM. The recombinant TDP1 was purified to homogeneity by chromatography on Ni-chelating resin and phosphocellulose P11, as described, using plasmid pET 16B-TDP1, kindly provided by Dr. K.W. Caldecott (University of Sussex, United Kingdom).
The reaction mixtures were incubated at a constant temperature of 26 °C in a POLARstar OPTIMA fluorimeter (BMG LABTECH, GmbH, Ortenberg, Germany). Fluorescence intensity was measured (Ex485/Em520 nm) every 1 min for 10 min. The average values of the half maximal inhibitory concentration (IC50) were determined using a six-point concentration response curve and calculated using MARS Data Analysis 2.0 (BMG LABTECH). The 50% inhibitory concentration (IC50) was defined as the concentration of the compound that inhibited 50% of the enzyme activity, when compared to the untreated controls. At least three independent experiments were carried out to obtain the IC50 values.

[2] = test system: TDP1; conditions: cited from earlier work

T1 sequence (Q9NUW8 whole entry): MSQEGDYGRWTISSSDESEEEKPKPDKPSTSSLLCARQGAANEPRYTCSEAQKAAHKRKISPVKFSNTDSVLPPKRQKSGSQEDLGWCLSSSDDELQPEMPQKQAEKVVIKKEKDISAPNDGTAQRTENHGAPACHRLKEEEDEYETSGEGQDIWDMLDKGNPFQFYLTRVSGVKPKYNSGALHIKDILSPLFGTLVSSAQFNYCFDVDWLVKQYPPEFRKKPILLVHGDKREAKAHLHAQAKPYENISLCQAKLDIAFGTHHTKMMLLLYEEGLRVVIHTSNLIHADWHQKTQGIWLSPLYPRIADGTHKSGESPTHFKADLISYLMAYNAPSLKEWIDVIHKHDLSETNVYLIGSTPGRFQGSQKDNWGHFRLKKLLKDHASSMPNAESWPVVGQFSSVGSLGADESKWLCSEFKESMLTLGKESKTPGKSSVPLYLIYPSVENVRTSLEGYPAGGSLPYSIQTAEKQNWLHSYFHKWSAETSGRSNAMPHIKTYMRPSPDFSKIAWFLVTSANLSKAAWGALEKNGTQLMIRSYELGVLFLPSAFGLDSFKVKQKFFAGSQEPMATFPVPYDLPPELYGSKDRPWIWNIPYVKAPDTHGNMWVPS

## CC(C)=CCC/C(C)=C/CN1C(=O)S/C(=C\c2ccc(Br)cc2)C1=O [Compound 20f, (Z)-5-(4-bromobenzylidene)-3-((E)-3,7-dimethylocta-2,6-dienyl)thiazolidine-2,4-dione]
[1]
  IC50: > 100 µM

## CC(C)=CCC/C(C)=C/CN1C(=O)S/C(=C\C[C@@H]2CC=C(C)C2(C)C)C1=O [Compound 20g]
[1]
  IC50: 4.1 ± 0.1 µM

## CC(C)=CCC/C(C)=C/CN1C(=O)S/C(=C\c2cc(Br)cs2)C1=O [Compound 20d, (Z)-5-((4-bromothiophen-2-yl)methylene)-3-((E)-3,7-dimethylocta-2,6-dienyl)thiazolidine-2,4-dione]
[1]
  TDP1 inhibitory activity IC50: submicromolar
  IC50: 0.65 ± 0.07 µM

## O=C1NC(=O)/C(=C/c2ccc(Br)cc2)S1 [Compound 18f, (Z)-5-(4-bromobenzylidene)thiazolidine-2,4-dione]
[1]
  IC50: > 100 µM

## CO[C@@H]1CC[C@]2(C)C3C[C@H](OC)[C@@]4(C)C(CC[C@@H]4[C@H](C)CCC(=O)Nc4ccc(Br)cc4)[C@@H]3CC[C@@H]2C1 (stereo partly drawn) [Compound 4]
[2]; Figure 1, steroids
  IC50: 0.27 µM

## CCCS(=O)(=O)Oc1c(OC)cc(Br)c2c1CN1CCc3cc4c(cc3C1C2)OCO4 (stereo not drawn) [Compound 2]
[2]; Figure 1, berberines
  IC50: 2.9 µM

## CC(C)=CCC/C(C)=C/CN1C(=O)S/C(=C\c2ccc(C)s2)C1=O [Compound 20e, (Z)-3-((E)-3,7-dimethylocta-2,6-dienyl)-5-((5-methylthiophen-2-yl)methylene)-thiazolidine-2,4-dione]
[1]
  IC50: 2.9 ± 0.1 µM

## CC(C)=CCC/C(C)=C/CN1C(=O)S/C(=C\c2ccco2)C1=O [Compound 20a, (Z)-3-((E)-3,7-dimethylocta-2,6-dienyl)-5-(furan-2-ylmethylene)thiazolidine-2,4-dione]
[1]
  IC50: 3.4 ± 0.1 µM

## COc1cccc2c1-c1c(c3ccc([N+](=O)[O-])cc3c(=O)n1CCCN)C2=O [Compound 5]
[2]; Figure 1, isoquinolines
  IC50: 5.5 µM

## CC(C)=CCC/C(C)=C/CSc1n[nH]c(C23CC4CC(CC(C4)C2)C3)n1 [Compound 8]
[2]; Figure 1, terpenoadamantanes
  IC50: 5.2 µM

## O=C1S/C(=C\c2cc(Br)cs2)C(=O)N1Cc1ccccc1 [Compound 19d, (Z)-3-Benzyl-5-((4-bromothiophen-2-yl)methylene)thiazolidine-2,4-dione]
[1]
  IC50: > 100 µM

## Cc1ccc(/C=C2\SC(=O)NC2=O)s1 [Compound 18e, (Z)-5-((5-methylthiophen-2-yl)methylene)thiazolidine-2,4-dione]
[1]
  IC50: > 100 µM

## CC(C)=CCC/C(C)=C/CN1C(=O)S/C(=C\c2cccs2)C1=O [Compound 20c, (Z)-3-((E)-3,7-dimethylocta-2,6-dienyl)-5-(thiophen-2-ylmethylene)thiazolidine-2,4-dione]
[1]
  IC50: > 100 µM

## O=C1S/C(=C\c2ccc(Br)s2)C(=O)N1Cc1ccccc1 [Compound 19b, (Z)-3-Benzyl-5-((5-bromothiophen-2-yl)methylene)thiazolidine-2,4-dione]
[1]
  IC50: 1.9 ± 0.3 µM

## Cc1ccc(/C=C2\SC(=O)N(CCC3=CC[C@H]4C[C@@H]3C4(C)C)C2=O)s1 [Compound 21e, (Z)-3-(2-((1R,5S)-6,6-dimethylbicyclo[3.1.1]hept-2-en-2-yl)ethyl)-5-((5-methylthiophen-2-yl)methylene)thiazolidine-2,4-dione]
[1]
  IC50: 2.3 ± 0.1 µM

## O=C1S/C(=C\c2ccco2)C(=O)N1Cc1ccccc1 [Compound 19a, (Z)-3-Benzyl-5-(furan-2-ylmethylene)thiazolidine-2,4-dione]
[1]
  IC50: > 100 µM

## O=C1NC(=O)/C(=C/c2ccc(Br)s2)S1 [Compound 18b, (Z)-5-((5-bromothiophen-2-yl)methylene)thiazolidine-2,4-dione]
[1]
  IC50: 1.1 ± 0.2 µM

## O=C1S/C(=C\c2ccc(Br)cc2)C(=O)N1Cc1ccccc1 [Compound 19f, (Z)3-benzyl-5-(4-bromobenzylidene)thiazolidine-2,4-dione]
[1]
  IC50: 1.6 ± 0.3 µM

## CC1(C)[C@H]2CC=C(CCN3C(=O)S/C(=C\c4cc(Br)cs4)C3=O)[C@@H]1C2 [Compound 21d, (Z)-5-((4-bromothiophen-2-yl)methylene)-3-(2-((1R,5S)-6,6-dimethylbicyclo[3.1.1]hept-2-en-2-yl)ethyl)thiazolidine-2,4-dione]
[1]
  TDP1 inhibitory activity IC50: submicromolar
  IC50: 0.55 ± 0.07 µM

## O=C1S/C(=C\c2cccs2)C(=O)N1Cc1ccccc1 [Compound 19c, (Z)-3-Benzyl-5-(thiophen-2-ylmethylene)thiazolidine-2,4-dione]
[1]
  IC50: > 100 µM

## CC1=CC[C@@H](C/C=C2\SC(=O)N(Cc3ccccc3)C2=O)C1(C)C [Compound 19g, (S,Z)-3-Benzyl-5-(2-(2,2,3-trimethylcyclopent-3-enyl)ethylidene)thiazolidine-2,4-dione]
[1]
  IC50: 2.4 ± 1.1 µM

## CC1=CCC(CC=C2SC(=O)N(CCC3=CCC4CC3C4(C)C)C2=O)C1(C)C [Compound 21g, (Z)-3-(2-(1R,5S)-6,6-dimethylbicyclo[3.1.1]hept-2-en-2-yl)ethyl)-5-(2-((S)-2,2,3-trimethylcyclopent-3-enyl)ethylidene)thiazolidine-2,4-dione]
[1]
  IC50: 2.4 ± 0.1 µM

## O=C1NC(=O)/C(=C/c2cc(Br)cs2)S1 [Compound 18d, (Z)-5-((4-bromothiophen-2-yl)methylene)thiazolidine-2,4-dione]
[1]
  IC50: > 100 µM

## CC(C)c1ccc2c(c1)CC[C@H]1[C@](C)(CNC(=O)CC34CC5CC(CC(C5)C3)C4)CCC[C@]21C [Compound 7]
[2]; Figure 1, resin acid derivatives
  IC50: 0.19 µM

## CC1(C)[C@H]2CC=C(CCN3C(=O)S/C(=C\c4cccs4)C3=O)[C@@H]1C2 [Compound 21c, (Z)-3-(2-((1R,5S)-6,6-dimethylbicyclo[3.1.1]hept-2-en-2-yl)ethyl)-5-(thiophen-2-ylmethylene)thiazolidine-2,4-dione]
[1]
  IC50: > 100 µM

## O=C1NC(=S)/C(=C/c2ccc(O)c(O)c2O)S1 [Compound 6]
[2]; Figure 1, thiazolidines
  IC50: 0.87 µM

## CC1(C)[C@H]2CC=C(CCN3C(=O)S/C(=C\c4ccc(Br)cc4)C3=O)[C@@H]1C2 [Compound 21f, (Z)-5-(4-bromobenzylidene)-3-(2-((1R,5S)-6,6-dimethylbicyclo[3.1.1]hept-2-en-2-yl)ethyl)thiazolidine-2,4-dione]
[1]
  IC50: > 100 µM

## CC(C)=CCC/C(C)=C/CN1C(=O)S/C(=C\c2ccc(Br)s2)C1=O [Compound 20b, (Z)-5-((5-bromothiophen-2-yl)methylene)-3-((E)-3,7-dimethylocta-2,6-dienyl)thiazolidine-2,4-dione]
[1]
  TDP1 inhibitory activity IC50: did not show affinity for the enzyme
  IC50: > 100 µM

## CC1=CC[C@@H](C/C=C2\SC(=O)NC2=O)C1(C)C [Compound 18g, (S,Z)-5-(2-(2,2,3-Trimethylcyclopent-3-enyl)ethylene)thiazolidine-2,4-dione]
[1]
  IC50: > 100 µM

## COc1ccc(-c2cc(=O)oc3cc(OCCC4=CCC5CC4C5(C)C)ccc23)cc1 (stereo not drawn) [Compound 3]
[2]; Figure 1, coumarins
  IC50: 0.91 µM

## Cc1ccc(/C=C2\SC(=O)N(Cc3ccccc3)C2=O)s1 [Compound 19e, (Z)-3-Benzyl-5-((5-methylthiophen-2-yl)methylene)thiazolidine-2,4-dione]
[1]
  IC50: > 100 µM

## O=C1NC(=O)/C(=C/c2ccco2)S1 [Compound 18a, (Z)-5-(furan-2-ylmethylene)thiazolidine-2,4-dione]
[1]
  IC50: > 100 µM

## O=C1NC(=O)/C(=C/c2cccs2)S1 [Compound 18c, (Z)-5-(thiophen-2-ylmethylene)thiazolidine-2,4-dione]
[1]
  IC50: > 100 µM
